Patent US5316944A, “Enzymatic resolution of a racemic mixture of gamma-amino acids using penicillin acylase” (Merrell Dow Pharmaceuticals, priority 1992, dated 1994)

Columns and labels:
penicillin acylase = penicillin acylase (Escherichia coli, UniProt P06875); assay: penicillin acylase-catalyzed hydrolysis of N-phenylacetyl derivatives; assay type: biochemical, E.coli; conditions: for E: E values calculated from the yields and the ee's of the (R)-enantiomers; for Reaction rate: [S] = 50 mm, pH 7.8, 25° C.
Text: Here we report a simple procedure for the preparation of the enantiomers of γ-ethynyl GABA, γ-allenyl GABA, and γ-vinyl GABA by penicillin acylase-catalyzed hydrolysis of the corresponding N-phenylacetyl derivatives. Penicillin acylase (PA) from E.coli is used in industry for the preparation of 6-aminopenicillanic acid and semisynthetic β-lactam antibiotics (V. K. Svedas et al., Enzyme Microb. Technol., 2, 138 (1980)). PA is highly specific to phenylacetyl group and catalyzes its cleavage not only from penicillins, but also from amides, peptides, and esters (M. Cole, Biochem J., 115, 733 (1969); Ibid, 741; and, A. Czentirmai, Acta Microbiol. Acad. Sci. Hung., 12, 395 (1965/1966). The structure of the leaving group of the substrates hardly affects the rate constants of the hydrolytic reactions (M. Cole, Nature, 203, 519 (1964), and A. L. Margolin et al., Biochim. Biophys. Acta, 616, 283 (1980)). The enantioselectivity of PA was exploited in the preparation of amino acids (D. Rossi et al., Experientia, 33, 1557 (1977) and Ibid, 41, 35 (1985)), aminoalkylphosphonic acids (V. A. Solodenko et al., Tetrahedron, 47, 3989 (1991)), esters and alcohols (C. Fuganti et al., Tetrahedron Letters, 44, 2575 (1988), and H. Waldman, 30, 3057 (1989)), although the hydrolysis of an ester bond normally results in products with modest optical purity.
In a typical experiment, 0.7 g of penicillin acylase immobilized on Eupergit C, was suspended in a solution of (N-phenylacetyl)-vinyl GABA (1.0 g; 4 mmol) in 35 ml 0.1 M phosphate buffer, pH 7.8. The mixture was stirred at room temperature (r.t.) for 5 hours. Then the solution was adjusted to pH 2 and the remaining substrate was extracted with CH2 Cl2 to give (S)-(N-phenylacetyl)-vinyl GABA (organic layer) and (R)-γ-vinyl GABA (aqueous). Since the chemical deacylation of (S)-(N-phenylacetyl)-vinyl GABA under acid conditions results in the formation of byproducts the same enzyme was used for the deacylation of (S)-(N-phenylacetyl)-vinyl GABA. To achieve an effective hydrolysis, a larger amount of Eupergit-PA (1.5 g), higher reaction temperature (45° C.), and longer reaction time (2 days) were used. When the reaction was complete (HPLC) the Eupergit-PA was filtered off and phenylacetic acid was extracted with CH2 Cl2 from acidic solution (pH 2). The aqueous solution of both (R)- and (S)-γ-vinyl GABA were subjected to ion-exchange chromatography (Dowex 1×2- 100 (OH-)) followed by lyophilization. The enamtiomers of γ-ethynyl GABA and γ-allenyl GABA were prepared by the same procedure (Table 1).
^b [S] = 50 mm; pH 7.8:25° C.
^f The E values were calculated from the yields and the ee's of the
(R)enantiomers (C. S. Chen, et al., J. Am. Chem. Soc., 104, 7294 (1982)).

[1] = which enantiomer is active; cited from earlier work
GABA-T = conditions: known to elevate brain levels of GABA; cited from earlier work
[2] = test system: experimentally-induced seizures; conditions: compared with (S)-counterpart or racemic compound; cited from earlier work

Chain of penicillin acylase (P06875 290-846): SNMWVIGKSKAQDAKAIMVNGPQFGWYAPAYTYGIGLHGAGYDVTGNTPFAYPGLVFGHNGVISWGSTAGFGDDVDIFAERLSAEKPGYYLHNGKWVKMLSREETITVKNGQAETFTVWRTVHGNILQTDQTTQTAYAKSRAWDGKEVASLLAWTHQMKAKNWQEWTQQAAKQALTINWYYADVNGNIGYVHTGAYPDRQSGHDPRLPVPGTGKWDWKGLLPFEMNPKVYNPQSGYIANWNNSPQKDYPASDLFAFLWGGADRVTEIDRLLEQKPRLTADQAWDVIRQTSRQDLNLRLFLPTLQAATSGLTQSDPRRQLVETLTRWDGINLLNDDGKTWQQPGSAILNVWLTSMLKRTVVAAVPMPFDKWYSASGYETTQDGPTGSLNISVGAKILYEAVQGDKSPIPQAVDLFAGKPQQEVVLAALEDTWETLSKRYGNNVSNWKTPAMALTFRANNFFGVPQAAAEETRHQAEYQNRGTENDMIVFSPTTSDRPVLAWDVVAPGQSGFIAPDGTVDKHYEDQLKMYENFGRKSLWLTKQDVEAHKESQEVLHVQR
Chain of penicillin acylase (P06875 27-235): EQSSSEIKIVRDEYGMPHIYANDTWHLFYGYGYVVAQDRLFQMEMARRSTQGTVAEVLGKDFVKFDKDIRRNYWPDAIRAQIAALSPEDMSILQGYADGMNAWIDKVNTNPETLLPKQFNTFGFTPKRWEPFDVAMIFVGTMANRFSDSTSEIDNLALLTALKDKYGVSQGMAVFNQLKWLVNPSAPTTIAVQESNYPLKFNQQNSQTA

| Compound | E (penicillin acylase) | Reaction rate (penicillin acylase) | inhibition of GABA-T (GABA-T) | also measured |
| --- | --- | --- | --- | --- |
| C=CC(CCC(=O)O)NC(=O)Cc1ccccc1 (racemic) [Vinyl, (N-phenylacetyl)-vinyl GABA] | 17 | 39% | – | – |
| C=C=CC(CCC(=O)O)NC(=O)Cc1ccccc1 (racemic) [Allenyl] | 20 | 46% | – | – |
| C=C=CC(N)CCC(=O)O (stereo not drawn) [γ-allenyl GABA, 4-amino-hepta-5,6-dienoic acid] | – | – | irreversible inhibitors | biological activity [1]: resides in the (S)-enantiomers |
| C=CC(N)CCC(=O)O (stereo not drawn) [γ-vinyl GABA, 4-aminohex-5-enoic acid] | – | – | irreversible inhibitors | biological activity [1]: resides in the (S)-enantiomers |
| C#CC(N)CCC(=O)O (stereo not drawn) [γ-ethynyl GABA, 4-aminohex-5-ynoic acid] | – | – | irreversible inhibitors | – |
| C#CC(CCC(=O)O)NC(=O)Cc1ccccc1 (racemic) [Ethynyl] | > 100 | 100% | – | – |
| C#C[C@H](N)CCC(=O)O [(R)-γ-ethynyl GABA] | – | – | – | activity as an anticonvulsant agent [2]: more active |
